Test results published in US10131652B2, “Pyrimidinyloxy benzene derivatives as herbicides” (E. I. DU PONT DE NEMOURS AND COMPANY, priority 2014, dated 2018).

Assays:
Assay type in all cases: in vivo
[1] = tested on: barnyardgrass (Echinochloa crus-galli); assay: Test B pre-/postemergence plant response
Method in brief: (§1)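 Visual injury rating, 0 (no effect) to 100 (complete control), vs untreated controls after ~10 d greenhouse. Pre: directed soil spray after planting in loam/sand. Post: plants 2–10 cm, 1–2 leaf stage. Compound in non-phytotoxic solvent plus surfactant.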

corn (Zea mays) [2] = assay: Test B pre-/postemergence plant response
Method in brief: as §1

[3] = tested on: giant foxtail (Setaria faberii); assay: Test B pre-/postemergence plant response
Method in brief: as §1

[4] = tested on: pigweed (Amaranthus retroflexus); assay: Test B pre-/postemergence plant response
Method in brief: as §1

[5] = tested on: wheat (Triticum aestivum); assay: Test B pre-/postemergence plant response
Method in brief: as §1

[6] = tested on: Italian ryegrass (Lolium multiflorum); assay: Test D pre-/postemergence plant response
Method in brief: (§2)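 Plants are held in a greenhouse 13 to 15 days after spraying, then injury is rated by eye relative to controls on a 0 to 100 scale. Treatments are preemergence on freshly sown loam/sand pots or postemergence at 1- to 4-leaf stage in peat-based medium; surfactant-containing solvent formulation.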

[7] = tested on: barnyardgrass (Echinochloa crus-galli); assay: Test D pre-/postemergence plant response
Method in brief: as §2

[8] = tested on: blackgrass (Alopecurus myosuroides); assay: Test D pre-/postemergence plant response
Method in brief: as §2

corn (Zea mays) [9] = assay: Test D pre-/postemergence plant response
Method in brief: as §2

[10] = tested on: galium (catchweed bedstraw, Galium aparine); assay: Test D pre-/postemergence plant response
Method in brief: as §2

[11] = tested on: giant foxtail (Setaria faberii); assay: Test D pre-/postemergence plant response
Method in brief: as §2

[12] = tested on: lambsquarters (Chenopodium album); assay: Test D pre-/postemergence plant response
Method in brief: as §2

[13] = tested on: morningglory (Ipomoea coccinea); assay: Test D pre-/postemergence plant response
Method in brief: as §2

[14] = tested on: pigweed (Amaranthus retroflexus); assay: Test D pre-/postemergence plant response
Method in brief: as §2

[15] = tested on: ragweed (common ragweed, Ambrosia elatior); assay: Test D pre-/postemergence plant response
Method in brief: as §2

[16] = tested on: waterhemp (common waterhemp, Amaranthus rudis); assay: Test D pre-/postemergence plant response
Method in brief: as §2

[17] = 125 g ai/ha, postemergence, 0 to 100 scale, 0 no effect, 100 complete control
[18] = Postemergence, 500 g ai/ha, 0 to 100 scale (0 no effect, 100 complete control)
[19] = Preemergence, 125 g ai/ha, 0 to 100 scale where 0 is no effect and 100 is complete control
[20] = Preemergence, 500 g ai/ha, 0 to 100 scale where 0 is no effect and 100 is complete control
[21] = Postemergence, 16 g ai/ha, scale 0 to 100 (0 no effect, 100 complete control)
[22] = Postemergence, 31 g ai/ha, scale 0 to 100 (0 no effect, 100 complete control)
[23] = Postemergence, 62 g ai/ha, scale 0 to 100, 0 no effect, 100 complete control
[24] = Postemergence, 125 g ai/ha, scale 0 to 100, 0 no effect, 100 complete control
[25] = Preemergence, 16 g ai/ha, scale 0 to 100 (0 no effect, 100 complete control)
[26] = Preemergence, 31 g ai/ha, scale 0 to 100 (0 no effect, 100 complete control)
[27] = Preemergence, 62 g ai/ha, scale 0 to 100 (0 no effect, 100 complete control)

FC(F)(F)c1cc(-c2ccccc2Oc2ncc(Cl)cn2)ncn1 [Compound 54]
Plant response rating, Barnyardgrass [1, 17]: 20
Plant response rating, Barnyardgrass [1, 18]: 100
Plant response rating, Barnyardgrass [1, 19]: 60
Plant response rating, Barnyardgrass [1, 20]: 100
Plant response rating, Corn (corn (Zea mays) [2]; [17]): 0
Plant response rating, Corn (corn (Zea mays) [2]; [18]): 0
Plant response rating, Foxtail, Giant [3, 17]: 80
Plant response rating, Foxtail, Giant [3, 18]: 100
Plant response rating, Foxtail, Giant [3, 19]: 100
Plant response rating, Foxtail, Giant [3, 20]: 100
Plant response rating, Pigweed [4, 17]: 100
Plant response rating, Pigweed [4, 18]: 100
Plant response rating, Pigweed [4, 19]: 100
Plant response rating, Pigweed [4, 20]: 100
Plant response rating, Wheat [5, 17]: 0
Plant response rating, Wheat [5, 18]: 0
Ryegrass, Italian plant response rating [6, 21]: 0
Ryegrass, Italian plant response rating [6, 22]: 0
Plant response rating, Ryegrass, Italian [6, 23]: 0
Plant response rating, Ryegrass, Italian [6, 24]: 0
Plant response rating (scale 0 to 100), Ryegrass, Italian ([6]; Preemergence, 125 g ai/ha): 30
Plant response rating, Ryegrass, Italian [6, 25]: 0
Plant response rating, Ryegrass, Italian [6, 26]: 5
Plant response rating, Ryegrass, Italian [6, 27]: 5
Barnyardgrass plant response rating [7, 21]: 0
Barnyardgrass plant response rating [7, 22]: 5
Plant response rating, Barnyardgrass [7, 23]: 5
Plant response rating, Barnyardgrass [7, 24]: 10
Plant response rating (scale 0 to 100), Barnyardgrass ([7]; Preemergence, 62 g ai/ha): 10
Plant response rating (scale 0 to 100), Barnyardgrass ([7]; Preemergence, 125 g ai/ha): 95
Plant response rating, Barnyardgrass [7, 25]: 0
Plant response rating, Barnyardgrass [7, 26]: 5
Blackgrass plant response rating [8, 21]: 0
Blackgrass plant response rating [8, 22]: 5
Plant response rating, Blackgrass [8, 23]: 5
Plant response rating, Blackgrass [8, 24]: 5
Plant response rating (scale 0 to 100), Blackgrass ([8]; Preemergence, 125 g ai/ha): 70
Plant response rating, Blackgrass [8, 25]: 5
Plant response rating, Blackgrass [8, 26]: 5
Plant response rating, Blackgrass [8, 27]: 40
Corn plant response rating (corn (Zea mays) [9]; [21]): 0
Corn plant response rating (corn (Zea mays) [9]; [22]): 0
Plant response rating, Corn (corn (Zea mays) [9]; [23]): 5
Plant response rating, Corn (corn (Zea mays) [9]; [24]): 5
Plant response rating (scale 0 to 100), Corn (corn (Zea mays) [9]; Preemergence, 125 g ai/ha): 0
Plant response rating, Corn (corn (Zea mays) [9]; [25]): 0
Plant response rating, Corn (corn (Zea mays) [9]; [26]): 0
Plant response rating, Corn (corn (Zea mays) [9]; [27]): 0
Galium plant response rating [10, 21]: 50
Galium plant response rating [10, 22]: 55
Plant response rating, Galium [10, 23]: 55
Plant response rating, Galium [10, 24]: 75
Plant response rating (scale 0 to 100), Galium ([10]; Preemergence, 125 g ai/ha): 85
Plant response rating, Galium [10, 25]: 50
Plant response rating, Galium [10, 26]: 85
Plant response rating, Galium [10, 27]: 60
Foxtail, Giant plant response rating [11, 21]: 0
Foxtail, Giant plant response rating [11, 22]: 30
Plant response rating, Foxtail, Giant [11, 23]: 10
Plant response rating, Foxtail, Giant [11, 24]: 50
Plant response rating (scale 0 to 100), Foxtail, Giant ([11]; Preemergence, 125 g ai/ha): 95
Plant response rating, Foxtail, Giant [11, 25]: 0
Plant response rating, Foxtail, Giant [11, 26]: 10
Plant response rating, Foxtail, Giant [11, 27]: 95
Lambsquarters plant response rating [12, 21]: 0
Lambsquarters plant response rating [12, 22]: 5
Plant response rating, Lambsquarters [12, 23]: 5
Plant response rating, Lambsquarters [12, 24]: 70
Plant response rating (scale 0 to 100), Lambsquarters ([12]; Preemergence, 125 g ai/ha): 85
Plant response rating, Lambsquarters [12, 25]: 5
Plant response rating, Lambsquarters [12, 26]: 60
Plant response rating, Lambsquarters [12, 27]: 85
Morningglory plant response rating [13, 21]: 5
Morningglory plant response rating [13, 22]: 75
Plant response rating, Morningglory [13, 23]: 75
Plant response rating, Morningglory [13, 24]: 85
Plant response rating (scale 0 to 100), Morningglory ([13]; Preemergence, 125 g ai/ha): 15
Plant response rating, Morningglory [13, 25]: 0
Plant response rating, Morningglory [13, 26]: 0
Plant response rating, Morningglory [13, 27]: 5
Pigweed plant response rating [14, 21]: 60
Pigweed plant response rating [14, 22]: 80
Plant response rating, Pigweed [14, 23]: 80
Plant response rating, Pigweed [14, 24]: 60
Plant response rating (scale 0 to 100), Pigweed ([14]; Preemergence, 125 g ai/ha): 100
Plant response rating, Pigweed [14, 25]: 5
Plant response rating, Pigweed [14, 26]: 100
Plant response rating, Pigweed [14, 27]: 100
Ragweed plant response rating [15, 21]: 0
Ragweed plant response rating [15, 22]: 0
Plant response rating, Ragweed [15, 23]: 5
Plant response rating, Ragweed [15, 24]: 35
Plant response rating (scale 0 to 100), Ragweed ([15]; Preemergence, 125 g ai/ha): 35
Plant response rating, Ragweed [15, 25]: 10
Plant response rating, Ragweed [15, 26]: 40
Plant response rating, Ragweed [15, 27]: 10
Waterhemp plant response rating [16, 21]: 45
Waterhemp plant response rating [16, 22]: 60
Plant response rating, Waterhemp [16, 23]: 80
Plant response rating, Waterhemp [16, 24]: 75
Plant response rating (scale 0 to 100), Waterhemp ([16]; Preemergence, 125 g ai/ha): 100
Plant response rating, Waterhemp [16, 25]: 25
Plant response rating, Waterhemp [16, 26]: 85
Plant response rating, Waterhemp [16, 27]: 100
